Results: US20220313651A1, “INHIBITORS OF ZIKA VIRUS INFECTION” (priority 2019, published 2022)
Like-named read-outs stand apart in the source and are kept apart here.

Legend:
[1] = system: DENV-1-V1792 (2007/Vietnam); assay: microbe, parasite or virus in culture
Description: (§1) Vero E6 and LLC-MK2 cells were maintained in Dulbecco's Modified Eagle Medium (DMEM) supplemented with 8% fetal bovine serum (FBS) and penicillin and streptomycin (P/S). C6/36 cells were maintained in Eagle's Minimal Essential Medium (EMEM) supplemented with 5% FBS and P/S. ZIKV strains, including human strains PAN2016 (2016/Panama), R116265 (2016/Mexico), PAN2015 (2015/Panama), FLR (2015/Colombia), R103451 (2015/Honduras), PRVABC59 (2015/Puerto Rico), PLCal_ZV (2013/Thailand), and IbH 30656 (1968/Nigeria), mosquito strain MEX 2-81 (2016/Mexico), and rhesus macaque strain MR 766 (1947/Uganda), were used in the studies. These ZIKV strains were cultured in Vero E6 cells, and viral titers were detected by a standard plaque-forming assay. DENV human strains, including type 1: DENV-1-V1792 (2007/Vietnam), type 2: DENV-2-V594 (2006/Puerto Rico), type 3: DENV-3-V1043 (2006/Puerto Rico), and type 4: DENV-4-PR 06-65-740 (2006/Puerto Rico), were cultured in C6/36 cells, and the viral titers were determined by plaque-forming assay as described above.
(§2) The inhibitory activity of the Z-medicaments against DENV-1-4 was performed following the similar procedures as for ZIKV, except that LLC-MK2 cells were used for the infection, and cells were cultured at 37° C. for 14-16 days before staining with 0.5% crystal violet.
(§3) After removal of the unbound compounds by centrifugation after addition of 3% PEG-6000, ZIKV was incubated with Vero E6 cells at 37° C. for 1 h. The cells were then washed with PBS, overlaid with DMEM containing 1% carboxymethyl cellulose and 2% FBS, and cultured at 37° C. for 4-5 days, followed by staining with 0.5% crystal violet.

[2] = system: DENV-3-V1043 (2006/Puerto Rico); assay: microbe, parasite or virus in culture
Description: as §1, §2, §3

[3] = system: DENV-4-PR 06-65-740 (2006/Puerto Rico); assay: microbe, parasite or virus in culture
Description: as §1, §2, §3

[4] = system: DENV-2-V594 (2006/Puerto Rico); assay: microbe, parasite or virus in culture
Description: as §1, §2, §3

[5] = system: ZIKV mosquito strain MEX 2-81 (2016/Mexico); assay: Plaque reduction inhibition assay in Vero E6 cells, ZIKV MEX 2-81; type: cell-based, Zika virus (ZIKV)
Description: as §1
(§4) A plaque reduction inhibition assay was carried out to measure the inhibitory activity of Z-medicaments against infections of ZIKV and DENV. […] The compound-virus mixtures were then transferred to Vero E6 cells (10^5/well) and incubated at 37° C. for 1 h. […] The cells were washed thoroughly with PBS, and overlaid with DMEM containing 1% carboxymethyl cellulose and 2% FBS, followed by in vitro culture at 37° C. for 4-5 days and then staining with 0.5% crystal violet.
as §3

[6] = system: ZIKV FLR strain; assay: Combinatorial effects of gossypol with other Z-medicaments, ZIKV FLR; type: cell-based, Zika virus (ZIKV); settings: for Fold of Enhancement / CI (combination index): ZIKV FLR; for Fold of Enhancement: IC50 alone / in mixture; for CI (combination index): named compound in combination with gossypol
Experimental: (§5) The unbound viruses and Z-medicaments were removed, and the cells were cultured at 37° C. for 4-5 days, followed by staining with 0.5% crystal violet. The Z-medicaments without combinations were used as controls. The IC50 of the Z-medicaments was calculated as described above.
(§6) The Z-medicaments were then analyzed for synergistic effects based on the combination index (CI) and IC50 values using the CalcuSyn program. Specifically, CI values <1 and >1 indicate synergy and antagonism, respectively. Synergy was further identified as five different categories: CI values <0.1, 0.1-0.3, 0.3-0.7, 0.7-0.85, and 0.85-0.90 indicate very strong synergism, strong synergism, synergism, moderate synergism, and slight synergism, respectively. Fold enhancement of anti-ZIKV potency is expressed as the ratio of molar concentrations of the Z-medicaments tested alone and in the mixture.

[7] = system: ZIKV human strain PRVABC59 (2015/Puerto Rico); assay: Plaque reduction inhibition assay in Vero E6 cells, ZIKV PRVABC59; type: cell-based, Zika virus (ZIKV)
Experimental: (§7) A plaque reduction inhibition assay was carried out to measure the inhibitory activity of Z-medicaments against infections of ZIKV and DENV. […] The compound-virus mixtures were then transferred to Vero E6 cells (10^5/well) and incubated at 37° C. for 1 h.

[8] = system: ZIKV PRVABC59 strain; assay: Combinatorial effects of gossypol with other Z-medicaments, ZIKV PRVABC59; type: cell-based, Zika virus (ZIKV); settings: for Fold of Enhancement: IC50 alone / in mixture; for CI (combination index): named compound in combination with gossypol
Experimental: as §5, §6

[9] = system: LLC-MK2 cells
Experimental: The cytotoxicity of Z-medicaments in LLC-MK2 (DENV-1-4 target cells) was detected using Cell Counting Kit-8 (CCK8). […] The cells were then incubated with CCK8 solution, and measured absorbance at 450 nm (A450 value) using a microplate reader.
Briefly, compounds at 2-fold serial dilutions were added to cells (2.0×10^4/well) pre-seeded in 96-well plates. The cells were cultured at 37° C. for 3 days, and incubated with CCK8 solution, followed by measurement of absorbance at 450 nm (A450 value) using microplate reader.

[10] = system: ZIKV human strain IbH 30656 (1968/Nigeria); assay: Plaque reduction inhibition assay in Vero E6 cells, ZIKV IbH 30656; type: cell-based, Zika virus (ZIKV)
Experimental: as §7

[11] = system: ZIKV human strain PAN2015 (2015/Panama); assay: microbe, parasite or virus in culture; type: cell-based, Zika virus (ZIKV); settings: Vero E6 cells
Description: as §1, §4, §3

[12] = Dengue virus, DENV1, LLC-MK2, read-out: IC50 DENV-1-V1792, LLC-MK2 cells, Table 5
[13] = Dengue virus, DENV3, LLC-MK2, read-out: IC50 DENV-3-V1043, LLC-MK2 cells, Table 5
[14] = Dengue virus, DENV4, LLC-MK2, read-out: IC50 DENV-4-PR 06-65-740, LLC-MK2 cells, Table 5
[15] = Dengue virus, DENV2, LLC-MK2, read-out: IC50 DENV-2-V594, LLC-MK2 cells, Table 5

## Cc1cc2c(C(C)C)c(O)c(O)c(C=O)c2c(O)c1-c1c(C)cc2c(C(C)C)c(O)c(O)c(C=O)c2c1O [Gossypol, gossypol]
[1]; [12]
  IC50: 1.87 µM
[1]; Dengue virus, DENV1, LLC-MK2, read-out: IC50 DENV-1-V1792, LLC-MK2 cells, Table 8
  IC50: 2.06 ± 0.13 µM
[2]; [13]
  IC50: 3.7 µM
[2]; Dengue virus, DENV3, LLC-MK2, read-out: IC50 DENV-3-V1043, LLC-MK2 cells, Table 8
  IC50: 3.42 ± 0.11 µM
[3]; [14]
  IC50: 2.6 µM
[3]; Dengue virus, DENV4, LLC-MK2, read-out: IC50 DENV-4-PR 06-65-740, LLC-MK2 cells, Table 8
  IC50: 2.83 ± 0.07 µM
[4]; [15]
  IC50: 1.89 µM
[4]; Dengue virus, DENV2, LLC-MK2, read-out: IC50 DENV-2-V594, LLC-MK2 cells, Table 8
  IC50: 1.91 ± 0.01 µM
[5]; Zika virus, Vero C1008, read-out: IC50 against ZIKV strain MEX 2-81
  IC50: 2.79 ± 0.01 µM
[5]; Zika virus, Vero C1008, read-out: ZIKV strains IC50, MEX 2-81
  IC50: 2.93 ± 0.01 µM
[6]; Zika virus, Vero C1008, read-out: IC50 Alone
  IC50: 0.26 ± 0.01 µM
[7]; Zika virus, Vero C1008, read-out: ZIKV strains IC50, PRVABC59
  IC50: 4.55 ± 0.07 µM

## C[C@H]1[C@H]2CC[C@H]3[C@@H]4CC=C5C[C@@H](N(C)C)CC[C@]5(C)[C@H]4CC[C@]23CN1C [Conessine, conessine]
[6]; gossypol + conessine
  Fold of Enhancement: 2.13
[6]
  CI (combination index): 0.85
[8]; gossypol + conessine
  Fold of Enhancement: 7.29
[8]
  CI (combination index): 0.28

## COc1cc(/C=C/C(=O)CC(=O)/C=C/c2ccc(O)c(OC)c2)ccc1O [Curcumin, curcumin]
[9]; 3 days, CCK8, Table 5
  CC50: 59.4 ± 1.18 µM
[6]; gossypol + curcumin
  Fold of Enhancement: 3.84
[6]
  CI (combination index): 0.49
[8]; gossypol + curcumin
  Fold of Enhancement: 6.46
[8]
  CI (combination index): 0.30

## Cc1cc2c(C(C)C)c(O)c(O)c(/C=N/n3c(=O)[nH][nH]c3=O)c2c(O)c1-c1c(C)cc2c(C(C)C)c(O)c(O)c(/C=N/n3c(=O)[nH][nH]c3=O)c2c1O [ST087010]
[9]; Table 8
  CC50: 47.2 µM
[1]
  SI (CC50/IC50), DENV-1-V1792: 15.7
[1]; read-out: IC50 DENV-1-V1792, LLC-MK2 cells, Table 8
  IC50: 3.01 ± 0.11 µM
[2]
  SI (CC50/IC50), DENV-3-V1043: 14.2
[2]; read-out: IC50 DENV-3-V1043, LLC-MK2 cells, Table 8
  IC50: 3.33 ± 0.08 µM
[3]
  SI (CC50/IC50), DENV-4-PR 06-65-740: 15.8
[3]; read-out: IC50 DENV-4-PR 06-65-740, LLC-MK2 cells, Table 8
  IC50: 2.98 ± 0.18 µM
[4]
  SI (CC50/IC50), DENV-2-V594: 14.8
[4]; read-out: IC50 DENV-2-V594, LLC-MK2 cells, Table 8
  IC50: 3.19 ± 0.01 µM
[5]; Vero E6 cells, Table 7, gossypol derivatives, read-out: ZIKV strains IC50, MEX 2-81
  IC50: 2.92 ± 0.25 µM
[10]; Table 7, gossypol derivatives, read-out: ZIKV strains IC50, IbH 30656
  IC50: 2.94 ± 0.08 µM
[11]; Table 7, gossypol derivatives, read-out: ZIKV strains IC50, PAN2015
  IC50: 3.5 ± 0.06 µM
[7]; Vero E6 cells, Table 7, gossypol derivatives, read-out: ZIKV strains IC50, PRVABC59
  IC50: 2.36 ± 0.05 µM

## C[C@@H]1CC[C@@]2(OC1)O[C@H]1[C@@H](O)[C@H]3[C@@H]4CC[C@H]5C[C@@H](O[C@@H]6O[C@H](CO)[C@H](O[C@@H]7O[C@H](CO)[C@@H](O)[C@H](O[C@@H]8OC[C@@H](O)[C@H](O)[C@H]8O)[C@H]7O[C@@H]7O[C@H](CO)[C@H](O)[C@H](O[C@@H]8O[C@H](CO)[C@@H](O)[C@H](O)[C@H]8O)[C@H]7O)[C@H](O)[C@H]6O)[C@H](O)C[C@]5(C)[C@H]4CC[C@]3(C)[C@H]1[C@@H]2C [Digitonin, digitonin]
[9]; 3 days, CCK8, Table 5
  CC50: 59.02 ± 0.33 µM
[1]; [12]
  IC50: 5.21 ± 0.35 µM
[2]; [13]
  IC50: 4.07 ± 0.83 µM
[3]; [14]
  IC50: 6.44 ± 0.34 µM
[4]; [15]
  IC50: 6.56 ± 0.21 µM
[6]; gossypol + digitonin
  Fold of Enhancement: 2.04
[6]
  CI (combination index): 0.95
[10]; Zika virus, Vero C1008, Table 1, read-out: IC50 against ZIKV strain IbH 30656
  IC50: 5.3 ± 0.13 µM
[11]; Zika virus, Vero C1008, Table 1, read-out: IC50 against ZIKV strain PAN2015
  IC50: 5 ± 0.01 µM
[8]; gossypol + digitonin
  Fold of Enhancement: 6.98
[8]
  CI (combination index): 0.29
[7]; Zika virus, Vero C1008, Vero E6 cells, Table 1, read-out: IC50 against ZIKV strain PRVABC59
  IC50: 3.76 ± 1.12 µM
